Data from the supplement of paper PMC10307832.

Columns and labels:
Assay in all cases: relative viability (nuclei count vs DMSO), 5 days (fraction); higher = more cells survive
CAP-232 + Olaparib = compound: C[C@H]([C@@H](C(=O)N)NC(=O)[C@@H]1CSSC[C@@H](C(=O)N[C@H](C(=O)N[C@@H](C(=O)N[C@H](C(=O)N1)CCCCN)CC2=CNC3=CC=CC=C32)CC4=CC=C(C=C4)O)NC(=O)[C@@H](CC5=CC=CC=C5)N)O [CAP-232] + O=C(c1cc(Cc2n[nH]c(=O)c3ccccc23)ccc1F)N1CCN(C(=O)C2CC2)CC1 [Olaparib] (partner 8 µM)
Procedure, shortened: (§1)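 A single step with final 0.05% Triton X-100, 1% formaldehyde and 1 ug/ml Hoechst fixed the cells and stained nuclei 5 days after treatment. Lung cancer cell lines in 1536-well plates had been treated by pin tool the day after seeding with one drug alone or a fixed anchor-drug dose plus five library-drug doses (not always all listed) in √10 steps, and nuclei were counted on 4× images. Relative viability is the ratio of nuclei in treated wells to nuclei in vehicle wells, taken as the median of duplicate plates.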

CAP-232 + Linsitinib = compound: C[C@H]([C@@H](C(=O)N)NC(=O)[C@@H]1CSSC[C@@H](C(=O)N[C@H](C(=O)N[C@@H](C(=O)N[C@H](C(=O)N1)CCCCN)CC2=CNC3=CC=CC=C32)CC4=CC=C(C=C4)O)NC(=O)[C@@H](CC5=CC=CC=C5)N)O [CAP-232] + C[C@]1(O)C[C@@H](c2nc(-c3ccc4ccc(-c5ccccc5)nc4c3)c3c(N)nccn32)C1 [Linsitinib] (partner 1 µM)
Procedure, shortened: as §1

CAP-232 + Palbociclib = compound: C[C@H]([C@@H](C(=O)N)NC(=O)[C@@H]1CSSC[C@@H](C(=O)N[C@H](C(=O)N[C@@H](C(=O)N[C@H](C(=O)N1)CCCCN)CC2=CNC3=CC=CC=C32)CC4=CC=C(C=C4)O)NC(=O)[C@@H](CC5=CC=CC=C5)N)O [CAP-232] + CC(=O)c1c(C)c2cnc(Nc3ccc(N4CCNCC4)cn3)nc2n(C2CCCC2)c1=O [Palbociclib] (partner 0.5 µM)
Procedure, shortened: as §1

CAP-232 + AZD7762 = compound: C[C@H]([C@@H](C(=O)N)NC(=O)[C@@H]1CSSC[C@@H](C(=O)N[C@H](C(=O)N[C@@H](C(=O)N[C@H](C(=O)N1)CCCCN)CC2=CNC3=CC=CC=C32)CC4=CC=C(C=C4)O)NC(=O)[C@@H](CC5=CC=CC=C5)N)O [CAP-232] + NC(=O)Nc1cc(-c2cccc(F)c2)sc1C(=O)N[C@H]1CCCNC1 [AZD7762] (partner 0.2 µM)
Procedure, shortened: as §1

CAP-232 + Luminespib = compound: C[C@H]([C@@H](C(=O)N)NC(=O)[C@@H]1CSSC[C@@H](C(=O)N[C@H](C(=O)N[C@@H](C(=O)N[C@H](C(=O)N1)CCCCN)CC2=CNC3=CC=CC=C32)CC4=CC=C(C=C4)O)NC(=O)[C@@H](CC5=CC=CC=C5)N)O [CAP-232] + CCNC(=O)c1noc(-c2cc(C(C)C)c(O)cc2O)c1-c1ccc(CN2CCOCC2)cc1 [Luminespib] (partner 0.01 µM)
Procedure, shortened: as §1

Row | Cell Line | relative viability (CAP-232 + Olaparib; first compound 0.4 µM) | relative viability (CAP-232 + Olaparib; first compound 1.265 µM) | relative viability (CAP-232 + Olaparib; first compound 4 µM) | relative viability (CAP-232 + Olaparib; first compound 12.65 µM) | relative viability (CAP-232 + Linsitinib; first compound 0.4 µM) | relative viability (CAP-232 + Linsitinib; first compound 1.265 µM) | relative viability (CAP-232 + Linsitinib; first compound 4 µM) | relative viability (CAP-232 + Linsitinib; first compound 12.65 µM) | relative viability (CAP-232 + Palbociclib; first compound 0.4 µM) | relative viability (CAP-232 + Palbociclib; first compound 1.265 µM) | relative viability (CAP-232 + Palbociclib; first compound 4 µM) | relative viability (CAP-232 + Palbociclib; first compound 12.65 µM) | relative viability (CAP-232 + AZD7762; first compound 0.4 µM) | relative viability (CAP-232 + AZD7762; first compound 1.265 µM) | relative viability (CAP-232 + AZD7762; first compound 4 µM) | relative viability (CAP-232 + AZD7762; first compound 12.65 µM) | relative viability (CAP-232 + Luminespib; first compound 0.4 µM) | relative viability (CAP-232 + Luminespib; first compound 1.265 µM) | relative viability (CAP-232 + Luminespib; first compound 4 µM) | relative viability (CAP-232 + Luminespib; first compound 12.65 µM)
1 | HCC-44 | 0.99 | 0.975 | 0.943 | 1.04 | 0.817 | 0.666 | 0.754 | 0.627 | 1 | 1.05 | 0.92 | 0.937 | 0.995 | 1.06 | 1.04 | 0.986 | 1.35 | 1.01 | 0.759 | 1
2 | HCC-827 | 0.699 | 0.627 | 0.622 | 0.672 | 0.911 | 0.893 | 0.921 | 0.959 | 0.423 | 0.498 | 0.461 | 0.514 | 0.19 | 0.204 | 0.174 | 0.182 | 0.629 | 0.66 | 0.659 | 0.749
3 | HOP-62 | 1.08 | 0.388 | 0.604 | 0.709 | 0.776 |  | 0.954 | 0.946 | 0.491 | 0.42 | 0.436 | 0.386 | 0.883 | 0.482 | 0.981 | 0.607 | 0.957 | 0.917 | 1.13 | 0.908
4 | LC-2-ad | 0.726 | 0.738 | 0.768 | 0.7 | 0.84 | 0.847 | 0.766 | 0.807 | 0.478 | 0.517 | 0.473 | 0.513 | 0.917 | 0.815 | 0.919 | 0.688 | 1.03 | 1.07 | 0.965 | 0.561
5 | LCLC-97TM1 | 0.418 | 0.421 | 0.346 | 0.438 | 0.148 | 0.21 | 0.218 | 0.18 | 0.243 | 0.22 | 0.187 | 0.248 | 0.442 | 0.238 | 0.341 | 0.429 | 0.799 | 0.819 | 0.804 | 0.799
6 | LCLC-103H | 0.882 | 0.752 | 0.733 | 0.751 | 1.13 | 1.08 | 1.13 | 0.946 | 0.469 | 0.429 | 0.487 | 0.485 | 0.89 | 0.792 | 0.891 | 0.747 | 1.04 | 0.989 | 0.902 | 1.07
7 | LK-2 | 0.762 | 0.834 | 0.702 | 0.811 | 0.463 | 0.836 | 0.517 | 0.389 | 0.595 | 0.802 | 0.576 | 0.783 | 0.357 | 0.274 | 0.322 | 0.376 | 0.176 | 0.207 | 0.19 | 0.183
8 | LOU-NH91 | 0.945 | 0.873 | 0.907 | 0.574 | 0.923 | 1.06 | 0.865 | 0.719 | 0.525 | 0.482 | 0.522 | 0.39 | 0.857 | 0.758 | 0.799 | 0.287 | 0.335 | 0.271 | 0.341 | 0.326
9 | LU99A | 0.233 | 0.232 | 0.332 | 0.306 | 0.52 | 0.504 | 0.506 | 0.533 | 0.392 | 0.375 | 0.407 | 0.505 | 0.422 | 0.359 | 0.269 | 0.335 | 0.333 | 0.267 | 0.182 | 0.246
10 | LXF-289 | 1.09 | 1.07 | 1.12 | 1.08 | 1.05 | 0.952 | 0.992 | 0.983 | 0.611 | 0.625 | 0.58 | 0.62 | 1.19 | 1.16 | 1.15 | 1.27 | 0.787 | 0.642 | 0.581 | 0.775
11 | NCI-H23 | 0.34 | 0.301 | 0.306 | 0.27 | 0.5 | 0.624 | 0.587 | 0.543 | 0.437 | 0.478 | 0.523 | 0.567 | 0.286 | 0.236 | 0.239 | 0.22 | 0.218 | 0.196 | 0.197 | 0.119
12 | NCI-H322M | 0.939 | 0.746 | 0.745 | 0.697 | 1.14 | 0.916 | 0.941 | 0.959 | 0.494 | 0.427 | 0.446 | 0.508 | 0.827 | 0.645 | 0.528 | 0.556 | 0.686 | 0.832 | 0.809 | 0.565
13 | NCI-H358 | 0.454 | 0.677 | 0.783 | 0.465 | 0.548 | 0.686 | 0.796 | 0.584 | 0.22 | 0.125 | 0.14 | 0.153 | 0.466 | 0.406 | 0.376 | 0.318 | 0.241 | 0.289 | 0.376 | 0.352
